Measured values as given in US8134015B2, “Compound inhibiting in vivo phosphorous transport and medicine containing the same” (Kyowa Hakko Kirin Co., Ltd., priority 2003, dated 2012).

target: T1, rat NaPi-2b (Rattus norvegicus, UniProt Q9JJ09); experiment: Sodium-dependent phosphate uptake of Xenopus oocytes which expressed NaPi-2b (32P); type: cell-based; details: Xenopus oocytes expressing rat NaPi-2b, 32P radioactive phosphorus; read-out: IC50 (phosphate uptake inhibitory activity)
T1 construct: expressed in transfected cells; host or cells: Xenopus oocytes injected with cRNA
T1 sequence (Q9JJ09 1-695): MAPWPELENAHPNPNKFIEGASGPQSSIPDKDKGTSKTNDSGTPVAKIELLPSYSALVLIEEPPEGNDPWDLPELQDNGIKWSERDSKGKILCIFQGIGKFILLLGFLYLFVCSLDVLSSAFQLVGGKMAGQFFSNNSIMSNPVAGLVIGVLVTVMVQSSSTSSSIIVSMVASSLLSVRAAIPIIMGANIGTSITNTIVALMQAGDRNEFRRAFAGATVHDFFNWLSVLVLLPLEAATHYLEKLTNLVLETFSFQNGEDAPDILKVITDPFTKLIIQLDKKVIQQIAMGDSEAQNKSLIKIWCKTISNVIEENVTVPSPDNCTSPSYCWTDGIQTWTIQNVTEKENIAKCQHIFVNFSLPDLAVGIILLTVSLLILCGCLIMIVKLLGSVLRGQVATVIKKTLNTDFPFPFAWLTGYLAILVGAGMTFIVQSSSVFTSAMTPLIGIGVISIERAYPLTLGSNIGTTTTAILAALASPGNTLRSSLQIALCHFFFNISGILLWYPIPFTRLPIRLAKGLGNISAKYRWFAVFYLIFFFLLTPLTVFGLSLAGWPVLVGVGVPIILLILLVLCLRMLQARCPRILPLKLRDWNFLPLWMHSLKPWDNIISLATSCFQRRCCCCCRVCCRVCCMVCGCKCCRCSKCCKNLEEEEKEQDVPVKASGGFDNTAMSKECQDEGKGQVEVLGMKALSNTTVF
Method in brief: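 Percent inhibition at 300 μM and 100 μM comes from the same inhibition curve of 32P uptake. Assay used oocytes expressing rat NaPi-2b after 2 days of culture.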

SMILES | IC50 [nM]
COc1ccc(/C=N/NC(=O)c2cc(N3CCCCC3)ccc2NC(=O)c2cccc(CSCCO)c2)cc1 [Compound 885, 3-(2-Hydroxy-ethylsulfanylmethyl)-N-[2-(4-methoxy-benzylidene-hydrazinocarbonyl)-4-piperidin-1-yl-phenyl]-benzamide] | 1240
O=C(O)CCSCc1cccc(C(=O)Nc2ccc(N3CCCCC3)cc2C(=O)N/N=C/c2ccc(F)cc2)c1 [Compound 888, 3-{3-[2-(4-Fluoro-benzylidene-hydrazinocarbonyl)-4-piperidin-1-yl-phenylcarbamoyl]-benzylsulfanyl}-propionic acid] | 2550
COc1ccc(/C=N/NC(=O)c2cc(N3CCCCC3)ccc2NC(=O)c2cccc(CSCC(=O)O)c2)cc1 [Compound 892, {3-[2-(4-Methoxy-benzylidene-hydrazinocarbonyl)-4-piperidin-1-yl-phenylcarbamoyl]-benzylsulfanyl}-acetic acid] | 14800
O=C(Nc1ccc(N2CCCCC2)cc1C(=O)N/N=C/c1ccc(Cl)c(C(F)(F)F)c1)c1cccc(CN2CCc3nc4ncccc4cc3C2)c1 [Compound 897, N-[2-(4-Chloro-3-trifluoromethyl-benzylidene-hydrazinocarbonyl)-4-piperidin-1-yl-phenyl]-3-(7,8-dihydro-5H-1,6,9-triaza-anthracen-6-ylmethyl)-benzamide] | < 300
COc1ccc(/C=N/NC(=O)c2cc(N3CCCCC3)ccc2NC(=O)c2cccc(CN3CCc4nc5ncccc5cc4C3)c2)cc1 [Compound 898, 3-(7,8-Dihydro-5H-1,6,9-triaza-anthracen-6-ylmethyl)-N-[2-(4-methoxy-benzylidene-hydrazinocarbonyl)-4-piperidin-1-yl-phenyl]-benzamide] | < 300
CCN(CC)CCN(CCN(CC)CC)Cc1cccc(C(=O)Nc2ccc(N3CCCCC3)cc2C(=O)N/N=C/c2ccc(C)c(C)c2)c1 [Compound 905, 3-{[Bis-(2-diethylamino-ethyl)-amino]-methyl}-N-[2-(3,4-dimethyl-benzylidene-hydrazinocarbonyl)-4-piperidin-1-yl-phenyl]-benzamide] | 1180
CCN(CC)CCN(CCN(CC)CC)Cc1cccc(C(=O)Nc2ccc(N3CCCCC3)cc2C(=O)N/N=C/c2ccc(C)cc2)c1 [Compound 906, 3-{[Bis-(2-diethylamino-ethyl)-amino]-methyl}-N-[2-(4-methyl-benzylidene-hydrazinocarbonyl)-4-piperidin-1-yl-phenyl]-benzamide] | 1830
CCN(CC)CCN(CCN(CC)CC)Cc1cccc(C(=O)Nc2ccc(N3CCCCC3)cc2C(=O)N/N=C/c2ccc(F)cc2)c1 [Compound 907, 3-{[Bis-(2-diethylamino-ethyl)-amino]-methyl}-N-[2-(4-fluoro-benzylidene-hydrazinocarbonyl)-4-piperidin-1-yl-phenyl]-benzamide] | 6750
CCN(CC)CCN(CCN(CC)CC)Cc1cccc(C(=O)Nc2ccc(N3CCCCC3)cc2C(=O)N/N=C/c2cccc(F)c2)c1 [Compound 908, 3-{[Bis-(2-diethylamino-ethyl)-amino]-methyl}-N-[2-(3-fluoro-benzylidene-hydrazinocarbonyl)-4-piperidin-1-yl-phenyl]-benzamide] | 13200
CCN(CC)CCN(CCN(CC)CC)Cc1cccc(C(=O)Nc2ccc(N3CCCCC3)cc2C(=O)N/N=C/c2ccc(Cl)c(C(F)(F)F)c2)c1 [Compound 909, 3-{[Bis-(2-diethylamino-ethyl)-amino]-methyl}-N-[2-(4-chloro-3-trifluoromethyl-benzylidene-hydrazinocarbonyl)-4-piperidin-1-yl-phenyl]-benzamide] | 1020
CCN(CC)CCN(CCN(CC)CC)Cc1cccc(C(=O)Nc2ccc(N3CCCCC3)cc2C(=O)N/N=C/c2ccc(OC)cc2)c1 [Compound 910, 3-{[Bis-(2-diethylamino-ethyl)-amino]-methyl}-N-[2-(4-methoxy-benzylidene-hydrazinocarbonyl)-4-piperidin-1-yl-phenyl]-benzamide] | 7810
CCCN(CCC)c1ccc(NC(=O)c2cccc(CN(C)CCN(CC)CC)c2)c(C(=O)N/N=C/c2ccc(Cl)c(C(F)(F)F)c2)c1 [Compound 911, N-[2-(4-Chloro-3-trifluoromethyl-benzylidene-hydrazinocarbonyl)-4-dipropylamino-phenyl]-3-{[(2-diethylamino-ethyl)-methyl-amino]-methyl}-benzamide] | < 1000
CCCN(CCC)c1ccc(NC(=O)c2cccc(CN(C)CCN(CC)CC)c2)c(C(=O)N/N=C/c2ccc(OC)cc2)c1 [Compound 912, 3-{[(2-Diethylamino-ethyl)-methyl-amino]-methyl}-N-[4-dipropylamino-2-(4-methoxy-benzylidene-hydrazinocarbonyl)-phenyl]-benzamide] | 1040
Cc1ccc(/C=N/NC(=O)c2cc(N3CCCCC3)ccc2NC(=O)c2cccc(CNCCN(CCO)CCO)c2)cc1C [Compound 913, 3-({2-[Bis-(2-hydroxy-ethyl)-amino]-ethylamino}-methyl)-N-[2-(3,4-dimethyl-benzylidene-hydrazinocarbonyl)-4-piperidin-1-yl-phenyl]-benzamide] | 1650
COc1ccc(/C=N/NC(=O)c2cc(N3CCCCC3)ccc2NC(=O)c2cccc(CNCCN(CCO)CCO)c2)cc1 [Compound 915, 3-({2-[Bis-(2-hydroxy-ethyl)-amino]-ethylamino}-methyl)-N-[2-(4-methoxy-benzylidene-hydrazinocarbonyl)-4-piperidin-1-yl-phenyl]-benzamide] | 8150
CCN(CC)CCN(C)Cc1cccc(C(=O)Nc2ccc(N3CCCC3)cc2C(=O)N/N=C/c2ccc(C)c(C)c2)c1 [Compound 916, 3-{[(2-Diethylamino-ethyl)-methyl-amino]-methyl}-N-[2-(3,4-dimethyl-benzylidene-hydrazinocarbonyl)-4-pyrrolidin-1-yl-phenyl]-benzamide] | 5220
CCN(CC)CCN(C)Cc1cccc(C(=O)Nc2ccc(N3CCCC3)cc2C(=O)N/N=C/c2ccc(Cl)c(C(F)(F)F)c2)c1 [Compound 917, N-[2-(4-Chloro-3-trifluoromethyl-benzylidene-hydrazinocarbonyl)-4-pyrrolidin-1-yl-phenyl]-3-{[(2-diethylamino-ethyl)-methyl-amino]-methyl}-benzamide] | 1250
CCN(CC)CCN(C)Cc1cccc(C(=O)Nc2ccc(N3CCCC3)cc2C(=O)N/N=C/c2ccc(OC)cc2)c1 [Compound 918, 3-{[(2-Diethylamino-ethyl)-methyl-amino]-methyl}-N-[2-(4-methoxy-benzylidene-hydrazinocarbonyl)-4-pyrrolidin-1-yl-phenyl]-benzamide] | 1550
Cc1ccc(/C=N/NC(=O)c2cc(N3CCCC3)ccc2NC(=O)c2cccc(CSCCO)c2)cc1C [Compound 919, N-[2-(3,4-Dimethyl-benzylidene-hydrazinocarbonyl)-4-pyrrolidin-1-yl-phenyl]-3-(2-hydroxy-ethylsulfanylmethyl)-benzamide] | 310
O=C(Nc1ccc(N2CCCC2)cc1C(=O)N/N=C/c1ccc(Cl)c(C(F)(F)F)c1)c1cccc(CSCCO)c1 [Compound 920, N-[2-(4-Chloro-3-trifluoromethyl-benzylidene-hydrazinocarbonyl)-4-pyrrolidin-1-yl-phenyl]-3-(2-hydroxy-ethylsulfanylmethyl)-benzamide] | < 1000
COc1ccc(/C=N/NC(=O)c2cc(N3CCCC3)ccc2NC(=O)c2cccc(CSCCO)c2)cc1 [Compound 921, 3-(2-Hydroxy-ethylsulfanylmethyl)-N-[2-(4-methoxy-benzylidene-hydrazinocarbonyl)-4-pyrrolidin-1-yl-phenyl]-benzamide] | 1220
CCN(CC)CCN(C)Cc1cccc(C(=O)Nc2ccc(N3CCCN(C)CC3)cc2C(=O)N/N=C/c2ccc(Cl)c(C(F)(F)F)c2)c1 [Compound 922, N-[2-(4-Chloro-3-trifluoromethyl-benzylidene-hydrazinocarbonyl)-4-(4-methyl-[1,4]diazepan-1-yl)-phenyl]-3-{[(2-diethylamino-ethyl)-methyl-amino]-methyl}-benzamide] | 2890
O=C(Nc1ccc(N2CCN(CCO)CC2)cc1C(=O)N/N=C/c1ccc(Cl)c(C(F)(F)F)c1)c1cccc(CSCCO)c1 [Compound 923, N-{2-(4-Chloro-3-trifluoromethyl-benzylidene-hydrazinocarbonyl)-4-[4-(2-hydroxy-ethyl)-piperazin-1-yl]-phenyl}-3-(2-hydroxy-ethylsulfanylmethyl)-benzamide] | 18800
CCN(CC)CCN(C)Cc1cccc(C(=O)Nc2ccc(N3CCN(CCO)CC3)cc2C(=O)N/N=C/c2ccc(Cl)c(C(F)(F)F)c2)c1 [Compound 924, N-{2-(4-Chloro-3-trifluoromethyl-benzylidene-hydrazinocarbonyl)-4-[4-(2-hydroxy-ethyl)-piperazin-1-yl]-phenyl}-3-{[(2-diethylamino-ethyl)-methyl-amino]-methyl}-benzamide] | 40200
